From patent publication US20250034136A1 (Nimbus Wadjet, Inc., priority 2023, published 2025) come the findings set out here.

Bounds are passed on as bounds.

Assay [1] deals with p21 induction in HCT116 cells. Description: p21 induction in HCT116 cells. Type of assay: cell-based. Particulars: Homo sapiens, HCT-116, 24 h, HCT116 cells, 24 h compound incubation; read-out: P21_EC50. Put shortly: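 HCT116 cells, 2,000/well, treated 24 h at 37 °C with 11-point compound dilutions in duplicate. Fixed, then immunostained for p21 and GAPDH and read by near-IR imaging at 800/700 nm. Normalized to DMSO (low) and reference WRN inhibitor (high) controls; EC50 from non-linear regression.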

Assay [2] addresses WRN (BV08), human Werner helicase (Uniprot Q14191, amino acids 517-1235 with L1074F point mutation) (Homo sapiens (Human), UniProt Q14191, L1074F). The experiment in a line: WRN (BV08) ADP-Glo assay. It is filed as biochemical. The following applies: class symbols A-E, read-out: ADP-Glo_hWRN_IC50.

WRN (BV08), human Werner helicase (Uniprot Q14191, amino acids 517-1235 with L1074F point mutation), sequence (Q14191 other isoform, or with tags, fused parts or gaps L1074F (already in the parent)): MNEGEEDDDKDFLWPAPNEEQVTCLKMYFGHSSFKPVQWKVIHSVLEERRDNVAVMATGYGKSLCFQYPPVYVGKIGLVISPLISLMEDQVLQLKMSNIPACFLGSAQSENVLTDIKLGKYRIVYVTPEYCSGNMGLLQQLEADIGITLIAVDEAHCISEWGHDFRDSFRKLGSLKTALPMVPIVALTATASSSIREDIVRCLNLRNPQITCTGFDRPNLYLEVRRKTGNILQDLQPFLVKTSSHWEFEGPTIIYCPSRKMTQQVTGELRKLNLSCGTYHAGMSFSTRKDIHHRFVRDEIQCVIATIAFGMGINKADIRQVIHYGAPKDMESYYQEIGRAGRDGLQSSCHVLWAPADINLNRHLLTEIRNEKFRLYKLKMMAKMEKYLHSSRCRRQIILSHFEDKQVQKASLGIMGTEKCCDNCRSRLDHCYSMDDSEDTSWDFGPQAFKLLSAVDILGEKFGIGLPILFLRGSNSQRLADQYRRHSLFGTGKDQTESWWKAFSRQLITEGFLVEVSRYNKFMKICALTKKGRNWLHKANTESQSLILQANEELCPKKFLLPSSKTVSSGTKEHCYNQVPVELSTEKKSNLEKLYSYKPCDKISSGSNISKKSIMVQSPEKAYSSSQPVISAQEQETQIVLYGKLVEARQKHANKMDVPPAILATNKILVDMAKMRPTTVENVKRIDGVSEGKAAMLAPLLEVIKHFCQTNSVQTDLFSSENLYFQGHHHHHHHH

Regarding `CCc1c(N2C[C@H]3CC[C@@H](C2)N3C(=O)c2ncnc(C)c2O)c(=O)c2nc(N(C)C)cnc2n1CC(=O)Nc1ccc(C(F)(F)F)cc1Cl` [I-206, N-[2-chloro-4-(trifluoromethyl)phenyl]-2-[2-(dimethylamino)-6-ethyl-7-[(1R,5S)-8-(5-hydroxy-6-methylpyrimidine-4-carbonyl)-3,8-diazabicyclo[3.2.1]octan-3-yl]-8-oxo-5H,8H-pyrido[2,3-b]pyrazin-5-yl]acetamide], the EC50 in assay [1] was > 5000 nM. In addition, the IC50 in assay [2] lay within 5 to 50 nM.
As for `CCc1c(N2CCN(C(=O)c3ncnc(C)c3O)CC2)c(=O)c2nc(N3CCC34COC4)cnc2n1CC(=O)Nc1ccc(C(F)(F)F)cc1Cl` [I-207, N-[2-chloro-4-(trifluoromethyl)phenyl]-2-{6-ethyl-7-[4-(5-hydroxy-6-methylpyrimidine-4-carbonyl)piperazin-1-yl]-2-{6-oxa-1-azaspiro[3.3]heptan-1-yl}-8-oxo-5H,8H-pyrido[2,3-b]pyrazin-5-yl}acetamide], in assay [1], the EC50 fell in the range of 2000 to 5000 nM. In addition, the IC50 in assay [2] lay in the range of 5 to 50 nM.
For `CCc1c(N2CCN(C(=O)c3ncnc(C)c3O)[C@H]3CC[C@@H]32)c(=O)c2nc(N(C)C)cnc2n1CC(=O)Nc1ccc(OC(F)(F)F)cc1F` [I-210, 2-[2-(dimethylamino)-6-ethyl-7-[(1S,6S)-5-(5-hydroxy-6-methylpyrimidine-4-carbonyl)-2,5-diazabicyclo[4.2.0]octan-2-yl]-8-oxo-5H,8H-pyrido[2,3-b]pyrazin-5-yl]-N-[2-fluoro-4-(trifluoromethoxy)phenyl]acetamide] the same measures were < 500 nM and 5 to 50 nM.
The like results for `[2H]C([2H])([2H])N(c1nc2c(=O)c(N3CCN(C(=O)c4ncnc(C)c4O)[C@H]4CC[C@@H]43)c(CC)n(CC(=O)Nc3ccc(C(F)(F)F)cc3F)c2nc1C)C([2H])([2H])[2H]` [I-211] were, in that order, < 500 nM and 5 to 50 nM.
As for `CCc1c(N2CCN(C(=O)c3nccc(F)c3O)CC2)c(=O)c2nc(N(C)C)cnc2n1CC(=O)Nc1ccc(C(F)(F)F)cc1Cl` [I-212, N-[2-chloro-4-(trifluoromethyl)phenyl]-2-[2-(dimethylamino)-6-ethyl-7-[4-(4-fluoro-3-hydroxypyridine-2-carbonyl)piperazin-1-yl]-8-oxo-5H,8H-pyrido[2,3-b]pyrazin-5-yl]acetamide], the EC50 in assay [1] lay in the range of 500 to 2000 nM. The IC50 in assay [2] lay in the range of 5 to 50 nM.
Take `CCc1c(C2=CCN(C(=O)c3ncnc(C)c3O)CC2)c(=O)c2nc(N(C)C)cnc2n1CC(=O)Nc1ccc(C(F)(F)F)cc1Cl` [I-213, N-[2-chloro-4-(trifluoromethyl)phenyl]-2-[2-(dimethylamino)-6-ethyl-7-[1-(5-hydroxy-6-methylpyrimidine-4-carbonyl)-1,2,3,6-tetrahydropyridin-4-yl]-8-oxo-5H,8H-pyrido[2,3-b]pyrazin-5-yl]acetamide]: in assay [1], the EC50 was 500 to 2000 nM. Also, the IC50 in assay [2] is 5 to 50 nM.
The like results for `[2H]C([2H])([2H])N(c1cnc2c(n1)c(=O)c(N1CCN(C(=O)c3ncnc(C)c3O)[C@H]3CC[C@@H]31)c(CC)n2CC(=O)Nc1ccc(C(F)(F)F)cc1F)C([2H])([2H])[2H]` [I-214, 2-{2-[di(2H3)methylamino]-6-ethyl-7-[(1S,6S)-5-(5-hydroxy-6-methylpyrimidine-4-carbonyl)-2,5-diazabicyclo[4.2.0]octan-2-yl]-8-oxo-5H,8H-pyrido[2,3-b]pyrazin-5-yl}-N-[2-fluoro-4-(trifluoromethyl)phenyl]acetamide] were, in that order, < 500 nM and 5 to 50 nM.
As for `CCc1c(N2CCN(C(=O)c3ncnc(C)c3O)[C@@H]3CCC[C@H]32)c(=O)c2nc(N(C)C)cnc2n1CC(=O)Nc1ccc(C(F)(F)F)cc1Cl` [I-215, 2-{7-[(4aR,7aR)-4-(5-hydroxy-6-methylpyrimidine-4-carbonyl)-octahydro-1H-cyclopenta[b]pyrazin-1-yl]-2-(dimethylamino)-6-ethyl-8-oxo-5H,8H-pyrido[2,3-b]pyrazin-5-yl}-N-[2-chloro-4-(trifluoromethyl)phenyl]acetamide], the EC50 in assay [1] was > 5000 nM. In addition, in assay [2], the IC50 lay in the range of 100 to 500 nM.
The like results for `CCc1c(N2CCN(C(=O)c3ncnc(C)c3O)C3(CCC3)C2)c(=O)c2nc(N(C)C)cnc2n1CC(=O)Nc1ccc(C(F)(F)F)cc1Cl` [I-216, N-[2-chloro-4-(trifluoromethyl)phenyl]-2-[2-(dimethylamino)-6-ethyl-7-[5-(5-hydroxy-6-methylpyrimidine-4-carbonyl)-5,8-diazaspiro[3.5]nonan-8-yl]-8-oxo-5H,8H-pyrido[2,3-b]pyrazin-5-yl]acetamide] were, in that order, > 5000 nM and 50 to 100 nM.
The like results for `CCc1c(N2CCN(C(=O)c3ncnc(C)c3O)CC2)c(=O)c2nc(N(C)S(C)(=O)=O)cnc2n1CC(=O)Nc1ccc(C(F)(F)F)cc1Cl` [I-217, N-[2-chloro-4-(trifluoromethyl)phenyl]-2-{6-ethyl-7-[4-(5-hydroxy-6-methylpyrimidine-4-carbonyl)piperazin-1-yl]-2-(N-methylmethanesulfonamido)-8-oxo-5H,8H-pyrido[2,3-b]pyrazin-5-yl}acetamide] were, in that order, > 5000 nM and 100 to 500 nM.
For `CCc1c(N2CCN(C(=O)c3nccc(Cl)c3O)CC2)c(=O)c2nc(N(C)C)cnc2n1CC(=O)Nc1ccc(C(F)(F)F)cc1Cl` [I-218, 2-{7-[4-(4-chloro-3-hydroxypyridine-2-carbonyl)piperazin-1-yl]-2-(dimethylamino)-6-ethyl-8-oxo-5H,8H-pyrido[2,3-b]pyrazin-5-yl}-N-[2-chloro-4-(trifluoromethyl)phenyl]acetamide] the same measures were 500 to 2000 nM and ≤ 5 nM.
For `CCc1c(C2CCN(C(=O)c3ncnc(C)c3O)CC2)c(=O)c2nc(N(C)C)cnc2n1CC(=O)Nc1ccc(C(F)(F)F)cc1Cl` [I-221, N-[2-chloro-4-(trifluoromethyl)phenyl]-2-[2-(dimethylamino)-6-ethyl-7-[1-(5-hydroxy-6-methylpyrimidine-4-carbonyl)piperidin-4-yl]-8-oxo-5H,8H-pyrido[2,3-b]pyrazin-5-yl]acetamide], the EC50 in assay [1] is > 5000 nM. Further, the IC50 in assay [2] lay in the range of 5 to 50 nM.
`CCc1c(N2CCN(C(=O)c3ncnc(C)c3O)[C@H]3CC[C@@H]32)c(=O)c2nc(N(C)C)cnc2n1CC(=O)Nc1ccc(C(F)(F)F)nc1Cl` [I-222, N-[2-chloro-6-(trifluoromethyl)pyridin-3-yl]-2-[2-(dimethylamino)-6-ethyl-7-[(1S,6S)-5-(5-hydroxy-6-methylpyrimidine-4-carbonyl)-2,5-diazabicyclo[4.2.0]octan-2-yl]-8-oxo-5H,8H-pyrido[2,3-b]pyrazin-5-yl]acetamide]: in assay [1], the EC50 is < 500 nM. The IC50 in assay [2] lay in the range of 5 to 50 nM.
`CCc1c(N2CCN(C(=O)c3ncnc(C)c3O)CC2)c(=O)c2nc(C3CCC3)cnc2n1CC(=O)Nc1ccc(C(F)(F)F)cc1Cl` [I-223, N-[2-chloro-4-(trifluoromethyl)phenyl]-2-{2-cyclobutyl-6-ethyl-7-[4-(5-hydroxy-6-methylpyrimidine-4-carbonyl)piperazin-1-yl]-8-oxo-5H,8H-pyrido[2,3-b]pyrazin-5-yl} acetamide]: the EC50 in assay [1] lay within 500 to 2000 nM. Also, in assay [2], the IC50 is 5 to 50 nM.
